# According to patent US20090093423A2, “NOVEL 2-SUBSTITUTED METHYL PENAM DERIVATIVES” (Orchid Chemicals and Pharmaceuticals Limited, priority 2006, published 2009):
# Experiments:
# Penicillinase enzyme = experiment: β-Lactamase assay (Centa substrate); type: biochemical; settings: FIG. 1
# Protocol: Representative novel compounds were subjected to β-lactamase assay to determine and compare their IC50 with that of Tazo as described elsewhere (Bebrone et. al, 2001, Antimicrob. Agents. Chemother. 45(6): 1868-1871; Jamieson et. al, 2003, Antimicrob. Agents. Chemother. 47(5): 1652-1657). Briefly enzyme inhibition assays with Tazo acid as the standard inhibitor for % inhibitions & IC50 value with optimized concentrations of Penicillinase enzyme & Centa β-lactamase substrate were performed.
# [1] = tested on: strains resistant to Fluoroquinolones; settings: Kriengkauykiat et al. 2005; cited from earlier work
# E. coli MRO 10135 = experiment: MIC, Agar Dilution Method, resistant clinical isolate; type: cell-based
# Protocol: (§1) The novel compounds were tested for the in vitro antibacterial activities by the Agar Dilution Method as specified in documents published by NCCLS, now CLSI, USA. (National Committee for Clinical Laboratory Standards (NCCLS). 2003. Approved standard M7-A6. NCCLS, Villanova, Pa.).
# (§2) Tazo was also dissolved in same buffer to get a solution of, e.g., 1 mg/mL. Novel penam derivatives described herein were dissolved in water to get a solution of, e.g., 1 mg/mL.
# (§3) The novel compounds and Tazo were also tested individually. The bacterial inoculum was prepared by picking 3 to 5 well-isolated bacterial colonies with the same morphological appearance from an 18-24 h old culture and adjusting the turbidity of the saline suspension to 0.5 McFarland Turbidity Standard equivalent to a bacterial population of 1.5×10^8 colony forming units (CFU) per mL of suspension. The suspension was diluted 1:10 in saline (i.e. 0.5 mL suspension+4.5 mL saline) to get a bacterial population of 1.5×10^7 CFU/mL as inoculum. […] The inoculated petridishes were incubated at 35° C. in an ambient atmosphere for 16-20 h.
# A. baumani MRO 14512 = experiment: as above; type: cell-based
# Protocol: as §1, §2, §3
# A. baumani MRO 14514 = experiment: as above; type: cell-based
# Protocol: as §1, §2, §3
# A. baumani MRO 14515 = experiment: as above; type: cell-based
# Protocol: as §1, §2, §3
Structure (SMILES),IC50 compared with Tazo (Penicillinase enzyme),other results
"CCC[n+]1ccn(C[C@@]2(C)[C@H](C(=O)[O-])N3C(=O)C[C@H]3S2(=O)=O)n1 [Example 3, 1-{[(2S,3S,5R)-2-Carboxy-3-methyl-4,4,7-trioxo-4-thia-1-azabicyclo[3.2.0]hept-3-yl]methyl}-3-n-propyl-1H-1,2,3-triazol-3-ium]",comparatively lower,–
"CC[n+]1ccn(C[C@@]2(C)[C@H](C(=O)[O-])N3C(=O)C[C@H]3S2(=O)=O)n1 [Example 2, 1-{[(2S,3S,5R)-2-Carboxy-3-methyl-4,4,7-trioxo-4-thia-1-azabicyclo[3.2.0]hept-3-yl]methyl}-3-ethyl-1H-1,2,3-triazol-3-ium]",three-fold lower,–
CC(C)(O/N=C(\C(=O)N[C@@H]1C(=O)N2C(C(=O)[O-])=C(C[n+]3ccccc3)CS[C@H]12)c1csc(N)n1)C(=O)O [Ceftazidime],–,cross-resistance of strains resistant to Fluoroquinolones [1]: 76%; MIC (antibiotic alone) (E. coli MRO 10135): >64 µg/mL; MIC (antibiotic alone) (A. baumani MRO 14512): >64 µg/mL; MIC (antibiotic alone) (A. baumani MRO 14514): >64 µg/mL; MIC (antibiotic alone) (A. baumani MRO 14515): >64 µg/mL

# Now from value to compound, other results behind:
IC50 compared with Tazo (Penicillinase enzyme),Structure (SMILES),other results
comparatively lower,"C[C@]1(Cn2cc[n+](CC(N)=O)n2)[C@H](C(=O)[O-])N2C(=O)C[C@H]2S1(=O)=O [Example 5, 1-{[(2S,3S,5R)-2-Carboxy-3-methyl-4,4,7-trioxo-4-thia-1-azabicyclo[3.2.0]hept-3-yl]methyl}-3-(2-amino-2-oxoethyl)-1H-1,2,3-triazol-3-ium]",–
comparatively lower,"C[C@]1(Cn2cc[n+](CC(=O)N3CCOCC3)n2)[C@H](C(=O)[O-])N2C(=O)C[C@H]2S1(=O)=O [Example 7, 1-{[(2S,3S,5R)-2-Carboxy-3-methyl-4,4,7-trioxo-4-thia-1-azabicyclo[3.2.0]hept-3-yl]methyl}-3-(2-morpholin-4-yl-2-oxoethyl)-1H-1,2,3-triazol-3-ium]",–
comparatively lower,"C=CC[n+]1ccn(C[C@@]2(C)[C@H](C(=O)[O-])N3C(=O)C[C@H]3S2(=O)=O)n1 [Example 4, 1-{[(2S,3S,5R)-2-Carboxy-3-methyl-4,4,7-trioxo-4-thia-1-azabicyclo[3.2.0]hept-3-yl]methyl}-3-allyl-1H-1,2,3-triazol-3-ium]",–
